According to PMC10859961, “Ir(III) Half-Sandwich Photosensitizers with a π-Expansive Ligand for Efficient Anticancer Photodynamic Therapy” (Journal of Medicinal Chemistry, 2024):
Read-outs that look alike come from different tables or passages of the source.

Tests used:
A549 cells [1] = assay: Lysosome damage (Acridine Orange, confocal microscopy); assay type: cell-based, human; settings: 10 nM, blue light irradiation
Experimental: For confocal microscopy experiments, A549 cells were seeded onto glass-bottom 8-well chamber slides (Ibidi) (5 × 10^4 cells per well) and allowed to attach overnight. In each experiment, the cells were treated with the complexes at the indicated conditions and washed with PBS before staining. For mitochondria visualization, the cells were incubated with the fluorescent dye MitoTracker Red CMXRos (Molecular Probes) at 200 nM in serum-free culture medium for 30 min at 37 °C. Cell nuclei were counterstained in blue with Hoechst 33342 (Invitrogen) diluted 1:4000 in DMEM without phenol red. To analyze lysosomal damage, the cells were incubated with AO at 5 μM at 37 °C for 15 min. Before observation, the cells were washed twice with PBS and fresh growth medium without phenol red was added. Cell images were immediately obtained by a Nikon A1R confocal microscope and images were analyzed using the NIS-Elements AR (Nikon, Japan) and the Fiji/ImageJ software.

1BR.3.G = assay: CyQUANT cell viability assay, dark or blue light; assay type: cell-based, human; settings: for IC50: 48 h; for PI (IC50,dark/IC50,light): blue light 460 nm
Experimental: (§1) Cells were cultured in 96-well plates at a density of 3000 (A549), 2500 (HeLa), or 5000 (PC-3, 1BR.3.G, and MRC-5) cells per well in cell culture medium and allowed to attach for 24 h. Solutions of the complexes at different concentrations were prepared for cell treatments. In all cases, the solid compounds were weighed using an analytical balance (Mettler Toledo AX205DR) to ensure precise measurements. Subsequently, 5 mM solutions were prepared using DMSO. Solutions were then diluted in water to reach a concentration of 1 mM and then, aliquots were taken and diluted in culture medium to obtain solutions ranging from 0 to 50 μM. […] The cells were treated with these solutions in dark conditions or following the photoactivation protocol (see below). 48 h later the treatments were removed, and cells were washed with phosphate-buffered saline (PBS).
(§2) Initially, the effect of the complexes on the cell viability was determined by the 3-(4,5-dimethylthiazol-2-yl)-2,5-diphenyltetrazolium bromide (MTT) assay.[147] The cells were incubated for 2 h with 100 μL of culture medium together with 10 μL of MTT (Sigma-Aldrich) at 0.5 mg/mL. After discarding the medium, DMSO was added to each well to dissolve the purple formazan crystals. The absorbance of each well was determined on a Multiscan Plate Reader (Synergy 4, Biotek, Winooski) at a wavelength of 570 nm. Cell viability was also assessed using the CyQUANT Direct Cell Proliferation Assay (Thermo Fisher Scientific), following the manufacturer’s instructions. Briefly, after the treatments, the cells were washed with PBS, and an equal volume of culture medium and CyQUANT mix was added to each well. The plates were then incubated for 1 h at 37 °C. Subsequently, the fluorescence intensity was bottom read using a Multiscan Plate Reader (Synergy 4, Biotek, Winooski) with excitation and emission filters of 485 and 528 nm, respectively. In both assays, at least three replicates were measured for each treatment. The concentration that reduces the cell viability by 50% (IC50) was established using the Gen5 software (BioTek). Three independent experiments were carried out for each compound. […] The phototoxicity index (PI = IC50,dark/IC50,light) was determined.
(§3) To assess the photodynamic activity of the complexes, cells were incubated with the complexes for 4 h to enable their intracellular accumulation. The cells were then irradiated with light with a wavelength of 460 nm (blue), 530 nm (green), or 655 nm (red) for 1 h using a LED system (LuxLight) with an effective power of 6.7 mW cm^–2, which provides a total light dose of 24.1 J cm^–2. The LED system was positioned at 25 mm from the cell culture plates.

HeLa = assay: CyQUANT cell viability assay, dark or blue light; assay type: cell-based, human; settings: for IC50: 48 h; for IC50 / PI (IC50,dark/IC50,light): CyQUANT; for PI (IC50,dark/IC50,light): blue light 460 nm
Experimental: as §1, §2, §3

PC-3 = assay: CyQUANT cell viability assay, dark or blue light; assay type: cell-based, human; settings: for IC50 / PI (IC50,dark/IC50,light): PC-3, CyQUANT; for IC50: 48 h; for PI (IC50,dark/IC50,light): blue light 460 nm; for PI/Dose: PC‐3, 460 nm, dose 24.1 J cm‐2, PI from CyQUANT
Experimental: as §1, §2, §3

MRC-5 = assay: CyQUANT cell viability assay, dark or blue light; assay type: cell-based, human; settings: for PI (IC50,dark/IC50,light): MRC-5, blue light 460 nm; for IC50: 48 h
Experimental: as §1, §2, §3

A549 = assay: CyQUANT cell viability assay, dark or blue light; assay type: cell-based, human; settings: for PI/Dose / IC50 / PI (IC50,dark/IC50,light): A549; for PI/Dose: 460 nm, dose 24.1 J cm‐2, PI from CyQUANT; for IC50: 48 h; for IC50 / PI (IC50,dark/IC50,light) / photoselectivity: IC50,light in A549 lower than IC50,dark in MRC-5 / phototoxicity indexes: CyQUANT; for PI (IC50,dark/IC50,light): blue light 460 nm; for photoselectivity: IC50,light in A549 lower than IC50,dark in MRC-5: A549 blue light vs nonirradiated MRC-5 lung fibroblasts; for phototoxicity indexes: three cancer cell lines (A549, HeLa, PC-3), blue light
Experimental: as §1, §2, §3

A549 cells [2] = assay: Mitochondrial membrane potential (JC-1, flow cytometry); assay type: cell-based, human; settings: 10 nM, blue light 1 h
Experimental: A549 cells were seeded onto 24-well plates. 24 h later, cells were incubated for 4 h with complexes 2, 4, 6, and 8 at 10 nM and then photoactivated or kept in the dark for an additional hour. Next, the cells were washed with PBS and harvested by trypsinization. Mitochondrial membrane potential changes were immediately measured by the JC-1 (5,5′,6,6′-tetrachloro-1,1′,3,3′-tetraethylbenzimidazolocarbo-cyanine iodide) Mitochondrial Membrane Potential Detection Kit (Biotium), according to the manufacturer’s instructions. As positive control, the cells were coincubated with CCCP (Sigma) at 5 μM for 30 min to disrupt the mitochondrial membrane potential. For each treatment, the fluorescence of 1 × 10^4 cells was analyzed by a Novocyte flow cytometer. JC-1 red aggregates were detected at a wavelength of 590 nm (FL2) and JC-1 green monomers at 529 nm (FL1).

[3] = Lipophilicity by the shake flask method; assay type: physicochemical; settings: 1-octanol/water; for logD9.2: carbonate–bicarbonate buffer pH 9.2
Experimental: The partition coefficients of complexes 5, 6, 7, and 8 were determined by the standard “shake flask” method.[37],[84],[85] Octanol-saturated water (OSW) and water-saturated octanol (WSO) were prepared using analytical grade 1-octanol and ultrapure water. The complexes were dissolved in WSO and molar extinction coefficient was determined. Then, 2 mL of 25 μg/mL complex in WSO was shaken with 2 mL of OSW at 1500 rpm for 6 h at room temperature. To separate the phases, centrifugation was done at 4000 rpm for 10 min. The absorbance of WSO phase before and after shaking was measured. The absorbance of WSO before mixing minus the absorbance of WSO after mixing corresponds to the absorbance of the complex in OSW. The distribution coefficients (log Do/w) of the complexes were obtained from the ratio of the complexes present in 1-octanol and the aqueous phase (eq 3). Each experiment was repeated three times. To avoid protonation in complexes 5 and 6, a carbonate–bicarbonate buffer at pH 9.2 in OSW was used. [drawing 24] 3 where A1-oct corresponds to the absorbance of WSO phase and Atotal is the actual concentration of the WSO before shaking.

[4] = 1BR.3.G nonmalignant fibroblasts, dark, read-out: IC50,dark
[5] = 1BR.3.G, blue light 460 nm 1 h (24.1 J cm^–2), read-out: IC50,light
[6] = blue light 460 nm 1 h (24.1 J cm^–2), read-out: IC50,light
[7] = MRC-5, blue light 460 nm 1 h (24.1 J cm^–2), read-out: IC50,light
[8] = MRC-5 nonmalignant lung fibroblasts, dark, read-out: IC50,dark

Cc1c(C)c(C)[c-](C)c1C.F[B-](F)(F)F.c1ccc2cc3nc4c5ccc[n+]6c5c5[c](cccc5c4nc3cc2c1)[Ir]6[n+]1cc[nH]c1 [complex 4, [(η^5-C5Me5)Ir(Im)(pbpn)]BF4]
red fluorescent particles (lysosomes, AO staining) (A549 cells [1]): completely disappeared
IC50 (1BR.3.G; [4]): 2 ± 0.4 µM
PI (IC50,dark/IC50,light) (1BR.3.G; 1BR.3.G): 2451
IC50 (1BR.3.G; [5]): 0.0008 ± 0.0004 µM
IC50 (HeLa; [6]): 0.0042 ± 0.0009 µM
PI (IC50,dark/IC50,light) (HeLa): 370
IC50 (HeLa; dark, read-out: IC50,dark): 1.55 ± 0.3 µM
IC50 (PC-3; [6]): 0.0011 ± 0.0006 µM
PI (IC50,dark/IC50,light) (PC-3): 2022
IC50 (PC-3; dark, read-out: IC50,dark): 2.28 ± 0.7 µM
PI/Dose (PC-3; listed as 4): 84
PI/Dose (PC-3; listed as Complex 4): 83.9
PI (IC50,dark/IC50,light) (MRC-5): 790
IC50 (MRC-5; [7]): 0.0031 ± 0.001 µM
IC50 (MRC-5; [8]): 2.48 ± 0.2 µM
PI/Dose (A549; listed as 4): 84
PI/Dose (A549; listed as Complex 4): 84.4
IC50 (A549; [6]): 0.001 ± 0.0004 µM
PI (IC50,dark/IC50,light) (A549): 2034
IC50 (A549; dark, read-out: IC50,dark): 2.1 ± 0.6 µM
photoselectivity: IC50,light in A549 lower than IC50,dark in MRC-5 (A549): 2480 times
phototoxicity indexes (A549): approximately 1000
cells with red fluorescence (JC-1 aggregates), upper right quadrant (A549 cells [2]): 34.3%

Cc1c(C)c(C)[c-](C)c1C.F[B-](F)(F)F.c1ccc2nc3c4ccc[n+]5c4c4[c](cccc4c3nc2c1)[Ir]5[n+]1ccn(CCN2CCCCC2)c1 [complex 5, [(η^5-C5Me5)Ir(Imepip)(pbpz)]BF4]
logD9.2 [3]: 1.10 ± 0.10

Cc1c(C)c(C)[c-](C)c1C.F[B-](F)(F)F.c1ccc2cc3nc4c5ccc[n+]6c5c5[c](cccc5c4nc3cc2c1)[Ir]6[n+]1ccn(CCN2CCCCC2)c1 [complex 6, [(η^5-C5Me5) Ir(Imepip)(pbpn)]BF4]
red fluorescent particles (lysosomes, AO staining) (A549 cells [1]): completely disappeared
IC50 (1BR.3.G; [4]): 0.57 ± 0.06 µM
PI (IC50,dark/IC50,light) (1BR.3.G; 1BR.3.G): 644
IC50 (1BR.3.G; [5]): 0.0009 ± 0.0003 µM
PI/Dose (HeLa; 460 nm, dose 24.1 J cm‐2, PI from CyQUANT): 42.7
IC50 (HeLa; [6]): 0.0007 ± 0.0002 µM
PI (IC50,dark/IC50,light) (HeLa): 1031
IC50 (HeLa; dark, read-out: IC50,dark): 0.7 ± 0.27 µM
IC50 (PC-3; [6]): 0.0012 ± 0.001 µM
PI (IC50,dark/IC50,light) (PC-3): 961
IC50 (PC-3; dark, read-out: IC50,dark): 1.16 ± 0.16 µM
PI (IC50,dark/IC50,light) (MRC-5): 929
IC50 (MRC-5; [7]): 0.0008 ± 0.0002 µM
IC50 (MRC-5; [8]): 0.7 ± 0.08 µM
IC50 (A549; [6]): 0.0004 ± 0.0002 µM
PI (IC50,dark/IC50,light) (A549): 911
IC50 (A549; dark, read-out: IC50,dark): 0.33 ± 0.2 µM
photoselectivity: IC50,light in A549 lower than IC50,dark in MRC-5 (A549): 1750 times
phototoxicity indexes (A549): approximately 1000
logD9.2 [3]: 1.39 ± 0.07
cells with red fluorescence (JC-1 aggregates), upper right quadrant (A549 cells [2]): 16.9%

Cc1c(C)c(C)[c-](C)c1C.F[B-](F)(F)F.c1ccc(Cn2cc[n+]([Ir]3[c]4cccc5c6nc7ccccc7nc6c6ccc[n+]3c6c45)c2)cc1 [complex 7, [(η^5-C5Me5)Ir(bzIm)(pbpz)]BF4]
logP [3]: 1.65 ± 0.16

Cc1c(C)c(C)[c-](C)c1C.F[B-](F)(F)F.c1ccc(Cn2cc[n+]([Ir]3[c]4cccc5c6nc7cc8ccccc8cc7nc6c6ccc[n+]3c6c45)c2)cc1 [complex 8, [(η^5-C5Me5)Ir(bzIm)(pbpn)]BF4]
red fluorescent particles (lysosomes, AO staining) (A549 cells [1]): completely disappeared
IC50 (1BR.3.G; [4]): 0.5 ± 0.04 µM
PI (IC50,dark/IC50,light) (1BR.3.G; 1BR.3.G): 942
IC50 (1BR.3.G; [5]): 0.0005 ± 0.0002 µM
IC50 (HeLa; [6]): 0.0008 ± 0.0002 µM
PI (IC50,dark/IC50,light) (HeLa): 622
IC50 (HeLa; dark, read-out: IC50,dark): 0.51 ± 0.1 µM
IC50 (PC-3; [6]): 0.0005 ± 0.0003 µM
PI (IC50,dark/IC50,light) (PC-3): 1179
IC50 (PC-3; dark, read-out: IC50,dark): 0.64 ± 0.1 µM
PI/Dose (PC-3): 48.9
PI (IC50,dark/IC50,light) (MRC-5): 863
IC50 (MRC-5; [7]): 0.0008 ± 0.0001 µM
IC50 (MRC-5; [8]): 0.68 ± 0.1 µM
PI/Dose (A549): 52.3
IC50 (A549; [6]): 0.0004 ± 0.0003 µM
PI (IC50,dark/IC50,light) (A549): 1260
IC50 (A549; dark, read-out: IC50,dark): 0.5 ± 0.2 µM
photoselectivity: IC50,light in A549 lower than IC50,dark in MRC-5 (A549): 1700 times
phototoxicity indexes (A549): approximately 1000
logP [3]: 1.13 ± 0.03
cells with red fluorescence (JC-1 aggregates), upper right quadrant (A549 cells [2]): 6.6%
